Where a name gives a salt, the structure may show the parent alone.
What was measured:
Myopia Mice Model = test: Suppression of axial length elongation in myopia mice model (spectacle lens-induced, eyedrop); format: in vivo, mice (C57BL/6J); conditions: 7 μL topically once a day, post-natal day 33 to 61, -15D lens, mouse
Description: Test 2. Test About Suppression of Axial Length Elongation in Myopia Mice Model
Tiotropium bromide hydrate and glycerin were dissolved in water for injection to prepare 0.0001% (w/v) and 0.01% (w/v) tiotropium ophthalmic solutions without adjusting pH.
In a similar way, atropine sulfate hydrate and glycerin were dissolved in water for injection to prepare 0.1% (w/v) atropine ophthalmic solution without adjusting pH. The vehicle (control) was isotonic water which was prepared with water for injection and glycerin.
Spectacle lens-induced myopia model was established by placing −15D hard lens on the right eye of mice (C57BL/6J), which was served as the experimental eye, at post-natal days 18. Briefly, a −15D lens was glued to an annulus (with 8 mm base curve) of Velcro. This mating piece was then attached to the Velcro that had been previously glued to the hair around the right experimental eye using a cyanoacrylate. An air gap of 1.5 mm existed between the back part of the lens and the anterior surface of the cornea.
Ocular biometry such as axial length measurement was done using in vivo Optical Low Coherence Interferometry (OLCI-AcMaster). The axial length was measured at post-natal days 33 and 61.
The ratio for suppressing the axial length elongation with each example was calculated by the following equation: […]
Tiotropium (at 0.0001% or 0.01%) or atropine (at 0.1%) was administered once a day post-natal day 33 until day 61 in the spectacle lens-induced myopia model. 7 μL of each drug was administered topically to the right eye in dim red light at the each day.

Myopia Chick Model = test: Suppression of axial length elongation in myopia chick model (goggle-induced, intravitreal administration); format: in vivo, chicks (white leghorns); conditions: 20 μL intravitreally on day 0, 2 and 4, axial length measured on day 6
Description: Test 1. Test About Suppression of Axial Length Elongation in Myopia Chick Model
Tiotropium bromide hydrate was dissolved in saline to prepare 0.1 mM and 10 mM tiotropium solutions.
And, atropine sulfate hydrate was dissolved in saline to prepare 100 mM atropine solution as a reference example.
As a control, saline was used.
A test tube having a diameter of 18 mm was cut off at the level of 10 mm from the bottom, and the cutting circle of the cut-off bottom part was bonded to a flat rubber packing with an adhesive agent to prepare a lens (goggle). 7-day-old chicks (white leghorns) were obtained, and the prepared goggle was attached to the right eye of each chick with an adhesive agent to induce myopia to the chicks. The left eye thereof was its control.
To each of the tiotropium administration groups, 20 μL of each prepared tiotropium solution was intravitreally administered on the day that the goggle was fixed (on day 0), on day 2, and on day 4. […]
On day 6 from the myopia induction, the axial length of right and left eyeballs was measured with a ultrasound axial length measurement ECHOSCAN US-500 (NIDEK CO., LTD.) (A-scan). The difference of axial lengths and the suppression rate of the axial length elongation were calculated by the following formulae.

[1] = system: pupil diameter of the mice; test: Evaluation of mydriatic action (pupil diameter after a single eyedrop); format: in vivo; conditions: mouse; for Pupil diameter before administration (mm): before the eyedrop (baseline); for Maximum pupil diameter (mm) / Measurement time of maximum pupil diameter: single dose 5 μL to both eyes; for Maximum pupil diameter (mm): longest average among 1, 2, 4 and 24 h
Description: Test 3. Evaluation of Mydriatic Action
Tiotropium bromide hydrate and glycerin were dissolved in water for injection to prepare 0.01% (w/v), 0.1% (w/v), and 2% (w/v) tiotropium ophthalmic solutions without adjusting pH.
In a similar way, atropine sulfate hydrate and glycerin were dissolved in water for injection to prepare 0.01% (w/v), and 0.1% (w/v) atropine ophthalmic solutions without adjusting pH.
A single dose (5 μL) of each prepared ophthalmic solution was administered to both eyes of mice (6 eyes of 3 mice per each ophthalmic solution). Before the administration (eyedrop), and 1, 2, 4 and 24 hours after the administration, each pupil diameter of the mice was measured. The measured pupil diameters of the mice at each measurement time per each test sample were averaged to obtain each average value as each average pupil diameter. Among each average pupil diameter at each measurement time, the longest diameter was defined as the maximum pupil diameter.

[2] = 0.01% (w/v) ophthalmic solution group
[3] = 0.01% (w/v) ophthalmic solution
[4] = 0.1% (w/v) ophthalmic solution group
[5] = 0.0001% (w/v) ophthalmic solution

| SMILES | Mean (μm) change in the axial length (Myopia Mice Model; 0.1% (w/v) ophthalmic solution) [μm] | Suppression rate (%) of the axial length elongation (Myopia Mice Model; 0.1% (w/v) ophthalmic solution) [%] | Suppression rate (%) of the axial length elongation (Myopia Chick Model; 100 mM atropine solution (reference example)) [%] | Pupil diameter before administration (mm) [1, 2] [mm] | Maximum pupil diameter (mm) [1, 3] [mm] | Measurement time of maximum pupil diameter [1, 3] [h] | Pupil diameter before administration (mm) [1, 4] [mm] | Maximum pupil diameter (mm) ([1]; 0.1% (w/v) ophthalmic solution) | Measurement time of maximum pupil diameter ([1]; 0.1% (w/v) ophthalmic solution) [h] | Mean (μm) change in the axial length (Myopia Mice Model; [5]) [μm] | Suppression rate (%) of the axial length elongation (Myopia Mice Model; [5]) [%] | Mean (μm) change in the axial length (Myopia Mice Model; [3]) [μm] | Suppression rate (%) of the axial length elongation (Myopia Mice Model; [3]) [%] | Suppression rate (%) of the axial length elongation (Myopia Chick Model; 0.1 mM solution) [%] | Pupil diameter before administration (mm) ([1]; 2% (w/v) ophthalmic solution group) | Maximum pupil diameter (mm) ([1]; 2% (w/v) ophthalmic solution) | Measurement time of maximum pupil diameter ([1]; 2% (w/v) ophthalmic solution) [h] |
| --- | --- | --- | --- | --- | --- | --- | --- | --- | --- | --- | --- | --- | --- | --- | --- | --- | --- |
| CN1[C@@H]2CC[C@H]1C[C@@H](OC(=O)C(CO)c1ccccc1)C2 (some centres unmarked) [atropine, atropine sulfate hydrate] | 111.61 | 29.50 | 83 | 0.42 | 1.43 | 1 | 0.40 | 1.96 | 2 |  |  |  |  |  |  |  |  |
| C[N+]1(C)C2CC(OC(=O)C(O)(c3cccs3)c3cccs3)CC1C1OC12 (stereo not drawn) [tiotropium, (1α,2β,4β,5α,7β)-7-[(hydroxydi-2-thienylacetyl)oxy]-9,9-dimethyl-3-oxa-9-azoniatricyclo[3.3.1.0^2,4]nonane bromide monohydrate] |  |  |  | 0.36 | 1.24 | 4 | 0.43 | 2.23 | 2 | 135.84 | 14.20 | 112.95 | 28.66 | 45 | 0.36 | 2.15 | 1 |
